From patent US20040005294A1, “IGFBP-3 in the diagnosis and treatment of cancer” (priority 2002, published 2004)

How the values were obtained:
[1] = system: 1198 and 1170-1 cells; assay: Apoptosis by TUNEL and DNA fragmentation, 1198 and 1170-1 cells; format: cell-based, human; details: treatment for 1 day
Protocol: […] Apoptosis was assessed by morphology, by a flow cytometry-based, modified terminal deoxynucleotidyl transferase dUTP nick end labeling (TUNEL) assay, and by the detection of fragmented DNA. For morphology, live cells were observed by light microscopy using a ×100 objective. For TUNEL analysis, both adherent and nonadherent cells were harvested and pooled, fixed with 1% paraformaldehyde and 70% ethanol, and processed using the APO-BrdU staining kit (Phoenix Flow Systems, San Diego, Calif.), a modified TUNEL assay, as described (Lee et al., 2002). Cells treated with DMSO were used to gate the control nonapoptotic populations and as a reference for cells treated with deguelin. An internal control (HL-60 cells treated with camptothecin to induce apoptosis) provided in the apoptosis detection kit was also used to ensure that the TUNEL reaction was occurring during the staining procedure. For the detection of fragmented nucleosomal DNA, cells were processed using the TACS apoptotic DNA laddering kit (Trevigen Inc., Gaithersburg, Md.), according to the manufacturer's recommended protocol.

[2] = system: NHBE cells; assay: Cell cycle analysis by flow cytometry, NHBE cells; format: cell-based, human; details: 10^−7 M, 3 days
Protocol: NHBE and 1799 cells were plated at a concentration of 2×10^5 cells/well in six-well plates. The next day, cells were treated with deguelin (various concentrations) or DMSO (0.1%) for 3 days to achieve maximal antiproliferative effects (determined from growth curves). All cells (nonadherent and adherent) were harvested, fixed with 1% paraformaldehyde and 70% ethanol, stained with 50 μg/mL propidium iodide, and subjected to flow cytometric analysis to determine the percentage of cells in specific phases of the cell cycle (G1, S, and G2/M) as described (Sun et al., 1997). Flow cytometric analysis was performed using a Coulter EPICS Profile II flow cytometer (Coulter Corp., Miami, Fla.) equipped with a 488-nm argon laser. Approximately 10 000 events (cells) were evaluated for each sample. Two independent experiments were performed and one is presented.

COc1cc2c(cc1OC)[C@@H]1C(=O)c3ccc4c(c3O[C@@H]1CO2)C=CC(C)(C)O4 [deguelin, Deguelin]
apoptotic events [1]: did not induce detectable apoptotic events | cell cycle distribution [2]: No detectable cell cycle changes
